# Results from US12121581B2, “Method of photodynamic therapy” (OSLO UNIVERSITETSSYKEHUS HF, priority 2018, dated 2024).
# Columns and labels:
# U87 cells = test: LUMIBLAST cell viability, MTT assay; assay type: cell-based
# Description: Efficiency of the luminol derivatives was investigated. The initial derivative tested was HD92 (also referred to herein as “AP47”). U87 cells were inoculated in 96 well plates. The cells were then divided into the following groups (at least 6 parallels per group): CTRL (media only), ALA CTRL (2 mM), HD92 CTRL (500 μM) and the LUMIBLAST group (2 mM 5-ALA and 500 μM HD92). Correspondingly, MCF7 cells were inoculated in 96 well plates and left to grow overnight. The cells were then divided into the following groups (at least 6 parallels per group): CTRL (media only), Hypocrellin A CTRL (HYPA 7 μM), HD92 CTRL (500 μM) and the LUMIBLAST group (7 μM HYPA and 500 μM HD92). These four groups were incubated in media with and without 10 μM FeSO4 in the case of experiments with HYPA. […] In brief, all cell groups were incubated with 0.5 mg/mL MTT for 3 hours. The MTT media were subsequently replaced with DMSO (100 μL) to solubilise the formazan. The wells were read for absorbance at 562 nm using a Tecan Spark OM plate reader. The cytotoxicity was determined as the percentage of control (media only) absorbance following subtraction of blank values from wells without cells.
# MCF7 and U87 cells were inoculated in 96 well plates. The cells were then divided into the following groups (at least 6 parallels per group): CTRL (media only), HYPA CTRL (3 μM), DZ168 CTRL (5, 10, 20 and 30 μM), and the LUMIBLAST combinations (3 μM HYPA+DZ168 5-30 μM). These cell group incubations were also repeated in media containing 100 μM CuSO4. […]
# MCF7 and U87 cells were inoculated in 96 well plates. The cells were then divided into the following groups (at least 6 parallels per group):CTRL (media only), HYPA CTRL (5 μM), DZ167 CTRL (25-200 μM), and the LUMIBLAST combinations (5 μM HYPA+DZ167 25-200 μM). These incubations were performed in media containing 50 μM CuSO4. […]
# The subcellular localisation of cercosporin together with that of synthesised derivatives DZ203 (short alkyl linker) and DZ196 (oligoPEG linker) was investigated. U87 cells were inoculated in 96 well plates. The cells were then divided into the following groups (at least 6 parallels per group). CTRL (media only), Cercosporin CTRL (3 μM), DZ203 CTRL (200 μM), DZ196 CTRL (500 μM) and the LUMIBLAST combinations (3 μM cercosporin+DZ203 200 μM or 3 μM cercosporin DZ196 500 μM). […]
# [1] = test system: MDA-MB-231 breast carcinoma cells; test: LUMIBLAST cell viability, MTT assay; assay type: cell-based; conditions: 1.2 mM 5-ALA + DZ203 400 μM, 100 μM CuSO4, ~20 hours
# Description: (§1) Efficiency of the luminol derivatives was investigated. The initial derivative tested was HD92 (also referred to herein as “AP47”). U87 cells were inoculated in 96 well plates. The cells were then divided into the following groups (at least 6 parallels per group): CTRL (media only), ALA CTRL (2 mM), HD92 CTRL (500 μM) and the LUMIBLAST group (2 mM 5-ALA and 500 μM HD92). Correspondingly, MCF7 cells were inoculated in 96 well plates and left to grow overnight. The cells were then divided into the following groups (at least 6 parallels per group): CTRL (media only), Hypocrellin A CTRL (HYPA 7 μM), HD92 CTRL (500 μM) and the LUMIBLAST group (7 μM HYPA and 500 μM HD92). These four groups were incubated in media with and without 10 μM FeSO4 in the case of experiments with HYPA. Following incubation of the cells with their respective drug strategies overnight (˜20 hours), the cell groups were tested for their viability using a standard MTT assay. In brief, all cell groups were incubated with 0.5 mg/mL MTT for 3 hours. The MTT media were subsequently replaced with DMSO (100 μL) to solubilise the formazan. The wells were read for absorbance at 562 nm using a Tecan Spark OM plate reader. The cytotoxicity was determined as the percentage of control (media only) absorbance following subtraction of blank values from wells without cells.
# MDA-MB-231 cells were inoculated in 96 well plates. […]
# cells = conditions: luminol together with transferrin-haematoporphyrin conjugates; cited from earlier work
# MCF7 cells = test: LUMIBLAST cell viability, MTT assay; assay type: cell-based
# Description: as §1
# MCF7 and U87 cells were inoculated in 96 well plates. The cells were then divided into the following groups (at least 6 parallels per group): CTRL (media only), HYPA CTRL (3 μM), DZ168 CTRL (5, 10, 20 and 30 μM), and the LUMIBLAST combinations (3 μM HYPA+DZ168 5-30 μM). These cell group incubations were also repeated in media containing 100 μM CuSO4. Following incubation of the cells with their respective drug strategies overnight (˜20 hours), the cell groups were tested for their viability using the MTT assay.
smiles,measurement,setting,value
"O=c1[nH][nH]c(=O)c2c(NCCC[P+](c3ccccc3)(c3ccccc3)c3ccccc3)cccc12.[I-] [DZ203, (3-((1,4-dioxo-1,2,3,4-tetrahydrophthalazin-5-yl)amino)propyl)triphenylphosphonium iodide]",LUMIBLAST effect (MTT viability),"U87 cells; U87, 3 μM cercosporin + DZ203 200 μM, 24 hours, presence of Cu (150 μM)",very profound effect
same,LUMIBLAST effect (MTT viability),[1],substantial synergy
"O=c1[nH][nH]c(=O)c2c(NCCOCCOCC[P+](c3ccccc3)(c3ccccc3)c3ccccc3)cccc12.[I-] [DZ196, (2-(2-(2-((1,4-dioxo-1,2,3,4-tetrahydrophthalazin-5-yl)amino)ethoxy)ethoxy)ethyl)triphenylphosphonium iodide]",LUMIBLAST effect (MTT viability),"U87 cells; U87, 3 μM cercosporin + DZ196 500 μM, without Cu",smaller effect
Nc1cccc2c(=O)[nH][nH]c(=O)c12 [luminol],cytotoxicity,cells,95%
"O=C(CCCCC[P+](c1ccccc1)(c1ccccc1)c1ccccc1)Nc1cccc2c(=O)[nH][nH]c(=O)c12.[Br-] [AP47, (6-((1,4-dioxo-1,2,3,4-tetrahydrophthalazin-5-yl)amino)-6-oxohexyl)triphenylphosphonium bromide]",combinatory cytotoxic effect (MTT viability),"U87 cells; U87, 2 mM 5-ALA and 500 μM HD92, ~20 hours, relative to HD92 control",combinatory cytotoxic effect is profoundly significant
same,toxicity of the derivative alone (MTT viability),"U87 cells; U87, HD92 CTRL 500 μM, ~20 hours",sub-toxic but very near the margins of chemical toxicity
same,combinatory cytotoxic effect (MTT viability),"MCF7 cells; 7 μM HYPA and 500 μM HD92, 10 μM FeSO4, ~20 hours, relative to HD92 control",combinatory cytotoxic effect is profoundly significant
same,toxicity of the derivative alone (MTT viability),"MCF7 cells; HD92 CTRL 500 μM, ~20 hours",sub-toxic but very near the margins of chemical toxicity
"O=c1[nH][nH]c(=O)c2c(NCCCCCCCCCC[P+](c3ccccc3)(c3ccccc3)c3ccccc3)cccc12.[I-] [DZ168, (10-((1,4-dioxo-1,2,3,4-tetrahydrophthalazin-5-yl)amino)decyl)triphenylphosphonium iodide]",toxicity (MTT viability),"U87 cells; U87, 3 μM HYPA + DZ168 5-30 μM, 100 μM CuSO4, ~20 hours",not affected
same,toxicity (MTT viability),"MCF7 cells; 3 μM HYPA + DZ168 5-30 μM, 100 μM CuSO4, ~20 hours",enhanced toxicity
"O=c1[nH][nH]c(=O)c2c(NCCCCCC[P+](c3ccccc3)(c3ccccc3)c3ccccc3)cccc12.[I-] [DZ167, (6-((1,4-dioxo-1,2,3,4-tetrahydrophthalazin-5-yl)amino)hexyl)triphenylphosphonium iodide]",LUMIBLAST effect (MTT viability),"U87 cells; U87, 200 μM DZ167, 5 μM HYPA and 50 μM CuSO4, ~20 hours",synergistic effect
"NCC(=O)CCC(=O)O [Compound 5-ALA, 5-aminolevulinic acid, reference compound]",efficiency of photosensitizer in producing LUMIBLAST effects,"U87 cells; 2 mM 5-ALA with 500 μM HD92 in U87, compared with HYPA in MCF7 with FeSO4",less efficient in producing LUMIBLAST effects than HYPA
